Read-outs that look alike come from different tables or passages of the source.
Key:
[1] = target: T1, ShhN protein (Homo sapiens, UniProt Q15465); test: Surface Plasmon Resonance (SPR) protein binding assay on immobilized ShhN; settings: SPR, Biacore T100, ShhN immobilized on CM4 chip, 25° C., compound 0.78 μM-25 μM; read-out: KD
T1 construct: auto-cleavage of full length Shh into an active 20 kD N-terminal fragment (ShhN); purchased R&D Systems
How it was run: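 Binding to immobilized ShhN measured on a Biacore T100 at 25°C. Signals referenced against underivatized control surfaces, with zero-concentration blank cycles included. Solvent correction applied.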

[2] = system: Gli1; test: Primary keratinocyte cell culture, reduction in Gli mRNA; assay type: cell-based; settings: primary human keratinocytes
Method: To study the potency of the compounds of the invention in cells, select compounds of the invention were conducted with keratinocytes and the reduction in Gli mRNA was measured. Culturing of primary human keratinocytes was previously described (Nguyen, B. C., et al., Genes & Dev. 20:1028-1042 (2006)). The full thickness skin model, EpiDermFT System (MatTek, Ashland), consisted of normal, human-derived epidermal keratinocytes and normal, human-derived dermal fibroblasts which have been cultured to form a multilayered, highly differentiated model of the human dermis and epidermis. […] Gene expression is compared by quantifying mRNA levels by real time RT-PCR. For this, total RNA preparations […] are used in a reverse transcriptase reaction with a mix of oligonucleotide dT and random hexamer primers, followed by real time PCR with gene-specific primers (Gli1: Qiagen Quantitect PrimerAssay QT00060501; Gli2: Qiagen Quantitect PrimerAssay QT00018648), using an […] real time detection system (Bio-Rad) according to the manufacturer's recommendation, with SYBR Green (Bio-Rad) for detection.

[3] = system: C3H10T1/2; test: Induction of osteogenic differentiation (modulation of osteoblast differentiation); settings: Mus musculus, C3H 10T1/2, read-out: IC50 (nM) C3H10T1/2
Description: Using assays previously described in Dwyer et al., J. Biol. Chem. 282, (2007), 8959-68 and Nakamura et al., Biochm. […] Res. Comm., 237 (1997) 465-9, select compounds of the invention were screened for their ability to modulate osteoblast differentiation.

[4] = rcm bond, 12-membered ring, Grubbs II (10 mol%), toluene, 10.0 mM
[5] = rcm bond, Grubbs II, toluene, 20.0 mM, 25.0 °C, 12.0 h

T1 sequence (Q15465 24-197 limits assumed, species assumed): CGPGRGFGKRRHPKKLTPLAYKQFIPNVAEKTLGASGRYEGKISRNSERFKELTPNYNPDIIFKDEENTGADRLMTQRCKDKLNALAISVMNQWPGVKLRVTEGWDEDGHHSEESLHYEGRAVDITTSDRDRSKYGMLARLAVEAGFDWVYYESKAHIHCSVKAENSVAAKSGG

| Structure (SMILES) | Kd [1] [µM] | IC50 [2] [µM] | IC50 [3] [nM] | other results |
| --- | --- | --- | --- | --- |
| CC(=O)N[C@H]1C/C=C/C[C@@H](CC(=O)NCc2ccc(Cl)cc2)C(=O)NC[C@@H](c2ccccc2)OC1=O [Example DJ, 2-((2R,6S,11S,E)-11-acetamido-5,12-dioxo-2-phenyl-1-oxa-4-azacyclododec-8-en-6-yl)-N-(4-chlorobenzyl)acetamide] | < 0.1 | > 100 | 100 to 1000 |  |
| C[C@H]1[C@@H](c2ccccc2)OC(=O)CC/C=C/C[C@@H](CC(=O)NCc2ccc(Cl)cc2)C(=O)N1C [Example CZ, N-(4-chlorobenzyl)-2-((2R,3S,6S,E)-3,4-dimethyl-5,12-dioxo-2-phenyl-1-oxa-4-azacyclododec-8-en-6-yl)acetamide] | < 0.1 | 0.1 to 1 | 100 to 1000 |  |
| O=C(C[C@@H]1C/C=C/CCC(=O)N[C@@H](c2ccccc2)COC1=O)NCc1ccc(Cl)cc1 [Example DA, N-(4-chlorobenzyl)-2-((3S,11S,E)-5,12-dioxo-3-phenyl-1-oxa-4-azacyclododec-8-en-11-yl)acetamide] | < 0.1 | < 0.1 | 100 to 1000 |  |
| C[C@@H]1C/C=C/CCNC(=O)[C@H](c2ccccc2)COC1=O |  |  |  | ring closure, isolated yield ([4]; from C=CCCNC(=O)[C@@H](COC(=O)[C@H](C)CC=C)c1ccccc1, 2 steps): 63% |
| C[C@@H]1C/C=C/CCC(=O)N[C@H](c2ccccc2)CC(=O)O1 |  |  |  | ring closure, isolated yield ([4]; from C=CCCC(=O)N[C@H](CC(=O)O[C@@H](C)CC=C)c1ccccc1): 79% |
| CC(=O)N[C@H]1C/C=C/C[C@@H](CC(=O)NCc2ccc(Cl)cc2)C(=O)N(C)[C@@H](C)[C@@H](c2ccccc2)OC1=O [Example DM, 2-((2R,3S,6S,11S,E)-11-acetamido-3,4-dimethyl-5,12-dioxo-2-phenyl-1-oxa-4-azacyclododec-8-en-6-yl)-N-(4-chlorobenzyl)acetamide] | < 0.1 | 0.1 to 1 | 1000 to 100000 |  |
| C[C@@H]1C/C=C/CCC(=O)N[C@H](c2ccccc2)COC1=O [Example C, (3R,11R,E)-11-methyl-3-phenyl-1-oxa-4-azacyclododec-8-ene-5,12-dione] | < 0.1 | < 0.1 | 100 to 1000 | ring closure, yield of all isomers ([5]; from C=CCCC(=O)N[C@@H](COC(=O)[C@H](C)CC=C)c1ccccc1): 37% |
| O=C(C[C@@H]1C[C@H](O)[C@@H](O)CCC(=O)N[C@H](c2ccccc2)COC1=O)NCc1ccc(Cl)cc1 [Example E, N-(4-chlorobenzyl)-2-((3R,8S,9S,11S)-8,9-dihydroxy-5,12-dioxo-3-phenyl-1-oxa-4-azacyclododecan-11-yl)acetamide] | < 0.1 | < 0.1 | 1000 to 100000 |  |
| CN1C(=O)CC/C=C/C[C@@H](CC(=O)NCc2ccc(Cl)cc2)C(=O)OC[C@H]1c1ccccc1 [GH, N-(4-chlorobenzyl)-2-((3R,11S,E)-4-methyl-5,12-dioxo-3-phenyl-1-oxa-4-azacyclododec-8-en-11-yl)acetamide] | 1 to 100 | 1 to 100 |  |  |
| CC1(C)O[C@H]2CCC(=O)O[C@H](c3ccccc3)CNC(=O)[C@H](CC(=O)NCc3ccc(Cl)cc3)C[C@@H]2O1 [Example I, N-(4-chlorobenzyl)-2-((3aS,8R,12S,13aS)-2,2-dimethyl-6,11-dioxo-8-phenyldecahydro-3aH-[1,3]dioxolo[4,5-h][1,4]oxaazacyclododecin-12-yl)acetamide] | < 0.1 | < 0.1 | 1000 to 100000 |  |
| O=C(C[C@@H]1C[C@@H]2O[C@H]2CCC(=O)N[C@H](c2ccccc2)COC1=O)NCc1ccc(Cl)cc1 [Example CD, N-(4-chlorobenzyl)-2-((1S,3S,7R,12S)-4,9-dioxo-7-phenyl-5,13-dioxa-8-azabicyclo[10.1.0]tridecan-3-yl)acetamide] | 1 to 100 | 1 to 100 |  |  |
| C[C@@H]1C/C=C/C[C@H](C)C(=O)N[C@H](c2ccccc2)COC1=O [Example D, (3R,6S,11R,E)-6,11-dimethyl-3-phenyl-1-oxa-4-azacyclododec-8-ene-5,12-dione] | < 0.1 |  | 100 to 1000 | ring closure, yield of all isomers ([5]; from C=CC[C@@H](C)C(=O)OC[C@H](NC(=O)[C@@H](C)CC=C)c1ccccc1): 78% |

The next lines start with results.

| Kd [1] [µM] | IC50 [2] [µM] | IC50 [3] [nM] | Structure (SMILES) | other results |
| --- | --- | --- | --- | --- |
| < 0.1 | < 0.1 | 100 to 1000 | N[C@@H]1C/C=C/C[C@@H](CC(=O)NCc2ccc(Cl)cc2)C(=O)NC[C@@H](c2ccccc2)OC1=O [Example CV, 2-((2R,6S,11R,E)-11-amino-5,12-dioxo-2-phenyl-1-oxa-4-azacyclododec-8-en-6-yl)-N-(4-chlorobenzyl)acetamide] |  |
| 1 to 100 | 1 to 100 |  | O=C(C[C@@H]1C/C=C/CCC(=O)O[C@H](c2ccccc2)CNC1=O)NCC1CCOCC1 [Example EF, 2-((2R,6S,E)-5,12-dioxo-2-phenyl-1-oxa-4-azacyclododec-8-en-6-yl)-N-((tetrahydro-2H-pyran-4-yl)methyl)acetamide] |  |
| < 0.1 | < 0.1 | < 100 | O=C(C[C@@H]1C/C=C/CCC(=O)O[C@H](c2ccccc2)CNC1=O)N[C@@H]1CCCc2ccccc21 [Example CR, 2-((2R,6S,E)-5,12-dioxo-2-phenyl-1-oxa-4-azacyclododec-8-en-6-yl)-N—((R)-1,2,3,4-tetrahydronaphthalen-1-yl)acetamide] |  |
| 0.1 to 1 | < 0.1 |  | O=C(C[C@@H]1C[C@@H]2O[C@H]2CCC(=O)O[C@H](c2ccccc2)CNC1=O)NCc1ccc(Cl)cc1 [Example BY, N-(4-chlorobenzyl)-2-((1S,6R,10S,12S)-4,9-dioxo-6-phenyl-5,13-dioxa-8-azabicyclo[10.1.0]tridecan-10-yl)acetamide] |  |
| < 0.1 | 0.1 to 1 | 1000 to 100000 | O=C1CC/C=C/C[C@@H](CC(=O)N2CCOCC2)C(=O)NC[C@@H](c2ccccc2)O1 [Example DK, (2R,6S,E)-6-(2-morpholino-2-oxoethyl)-2-phenyl-1-oxa-4-azacyclododec-8-ene-5,12-dione] |  |
| 1 to 100 | 0.1 to 1 |  | O=C(C[C@@H]1C[C@H](O)[C@@H](O)CCC(=O)O[C@H](c2ccccc2)CNC1=O)NCc1ccc(Cl)cc1 [Example BZ, N-(4-chlorobenzyl)-2-((2R,6S,8S,9S)-8,9-dihydroxy-5,12-dioxo-2-phenyl-1-oxa-4-azacyclododecan-6-yl)acetamide] |  |
| > 100 | 0.1 to 1 |  | O=C1CC/C=C/CCC(=O)O[C@H](c2ccccc2)CN1 [Example CB, (R,E)-2-phenyl-1-oxa-4-azacyclododec-8-ene-5,12-dione] |  |
| > 100 | 1 to 100 |  | CCCCN1CCC(CNC(=O)C[C@@H]2C/C=C/CCC(=O)O[C@H](c3ccccc3)CNC2=O)CC1 [EI] |  |
| 0.1 to 1 | < 0.1 | < 100 | O=C1CC/C=C/C[C@@H](CC(=O)N2CCCCC2)C(=O)NC[C@@H](c2ccccc2)O1 [Example CQ, (2R,6S,E)-6-(2-oxo-2-(piperidin-1-yl)ethyl)-2-phenyl-1-oxa-4-azacyclododec-8-ene-5,12-dione] |  |
| > 100 | 1 to 100 |  | CCN(CC)CCCNC(=O)C[C@@H]1C/C=C/CCC(=O)O[C@H](c2ccccc2)CNC1=O [EG] |  |
| < 0.1 | 0.1 to 1 | 1000 to 100000 | CN1CCC(CNC(=O)C[C@@H]2C/C=C/CCC(=O)O[C@H](c3ccccc3)CNC2=O)CC1 [Example DN, 2-((2R,6S,E)-5,12-dioxo-2-phenyl-1-oxa-4-azacyclododec-8-en-6-yl)-N-((1-methylpiperidin-4-yl)methyl)acetamide] |  |
| < 0.1 | < 0.1 | < 100 | O=C(C[C@@H]1C/C=C/CCC(=O)O[C@H](c2ccccc2)CNC1=O)NCCCC(F)(F)F [Example CT, 2-((2R,6S,E)-5,12-dioxo-2-phenyl-1-oxa-4-azacyclododec-8-en-6-yl)-N-(4,4,4-trifluorobutyl)acetamide] |  |
| > 100 | 1 to 100 |  | CCOCCNC(=O)C[C@@H]1C/C=C/CCC(=O)O[C@H](c2ccccc2)CNC1=O [EH] |  |
| 0.1 to 1 | 0.1 to 1 |  | O=C1CC/C=C/C[C@@H](CC(=O)N2CCN(c3ccccc3)CC2)C(=O)NC[C@@H](c2ccccc2)O1 [Example ES, (2R,6S,E)-6-(2-oxo-2-(4-phenylpiperazin-1-yl)ethyl)-2-phenyl-1-oxa-4-azacyclododec-8-ene-5,12-dione] |  |
|  | > 100 |  | O=C(CCc1ccc(Cl)cc1)N[C@@H]1C/C=C/CCC(=O)O[C@H](c2ccccc2)CNC1=O [CA] |  |
| 1 to 100 | 0.1 to 1 |  | O=C(C[C@@H]1C/C=C/CCC(=O)O[C@H](c2ccccc2)CNC1=O)NC1CCCc2ccccc21 (stereo partly shown) [ER] |  |
| > 100 | > 100 |  | O=C(O)C[C@@H]1C/C=C/CCC(=O)O[C@H](c2ccccc2)CNC1=O [GC, 2-((2R,6S,E)-5,12-dioxo-2-phenyl-1-oxa-4-azacyclododec-8-en-6-yl)acetic acid] |  |

Reference: US20140094462A1, “SONIC HEDGEHOG MODULATORS” (priority 2009, published 2014)
